Laboratory results taken from US4190657A, “Naphthyridine derivatives” (Synthelabo, priority 1976, dated 1980).
Like-named read-outs stand apart in the source and are kept apart here.

What was measured:
mice of the CD 1 strain = test: anoxia due to pressure reduction, survival time, mean active dose (MAD); type: in vivo, mice (CD 1 strain); conditions: mice CD 1, intraperitoneal, 10 minutes before the experiment, 190 mm of mercury, Table II; for ED (100% increase in survival time): Mus musculus, ip, read-out: ANOXIA DUE TO PRESSURE REDUCTION, mean active dose (MAD), dose which increases the survival time by 100%
Protocol: Mice of the CD 1 strain are kept in an atmosphere depleted in oxygen, by setting up a partial vacuum (190 mm. of mercury, corresponding to 5.25% of oxygen).
The survival time of the animals is noted. This time is increased by the agents capable of favouring oxygenation in the tissues and, in particular, in the brain. The compounds studied are administered intraperitoneally in several doses 10 minutes before the experiment. The percentage increases of the survival time relative to the values obtained with control animals are calculated. The mean active dose (MAD), namely the dose which increases the survival time by 100%, is determined graphically.
The results are indicated in Table II below for a representative number of compounds.

[1] = acute toxicity, 50 percent lethal dose (LD50), graphical method; type: in vivo; conditions: mouse, in vivo, ip, mice CD 1, intraperitoneal; Table II; read-out: ACUTE TOXICITY LD50 for intraperitoneal administration
Protocol: (§1) The 50 percent lethal dose (LD50) of the compounds is determined for mice of strain CD 1 by a graphical method.
(§2) The results are indicated in Table II below, for a representative number of compounds.

[2] = tested on: curarised rats ("sleep" induced by sodium 4-hydroxy-butyrate); test: action on the duration of the "sleep" induced by sodium 4-hydroxy-butyrate (GHB) in curarised rats; type: in vivo, rats (male, Charles River strain); conditions: for TOTAL DURATION of the "sleep" / change in vivo at 10 mg/kg / change in vivo at 30 mg/kg: GHB 200 mg/kg i.v.; for TOTAL DURATION of the "sleep": over 75 minutes, comparison 54.12 ± 2.07; for change in vivo at 10 mg/kg / change in vivo at 30 mg/kg: read-out: DIFFERENCE IN % RELATIVE TO THE CONTROLS (total duration of the "sleep")
Protocol: This action was determined from the influence of the compounds on the duration of the "sleep" induced by sodium 4-hydroxy-butyrate (GHB) in curarised rats.
The animals used are male rats of the Charles River strain, weighing 200±20 g. The animals, curarised by alloferin given intraperitoneally at the rate of 1 mg/kg, are placed under artificial respiration by means of a mask applied over the snout (respiration frequency: 40/minute; volume respired: 14 cc). The oesophagus is ligatured beforehand so as to avoid air entering the stomach.
Fronto-parietal and occipital cortical electrodes make it possible to record the electrocorticographic activity on a Grass model 79P polygraph at a speed of 6 mm/sec. The animals are prepared under local anaesthesia (2% xylocaine). The rats are kept at a constant temperature (37.5° C.) throughout the experiment. Ten minutes after the end of the preparation of the rat, a dose of 200 mg/kg of Na 4-hydroxybutyrate is injected intravenously into the tail. […]
The traces are evaluated for periods of 15 minutes over the course of 75 minutes after the injection of "GHB". During this period of analysis, the total duration of the "sleep" is determined. A series of 15 comparisons makes it possible precisely to define the duration of the "GHB sleep".
The statistical analysis of the results is carried out with the aid of the Mann-Whitney "U" test.

[3] = acute toxicity, 50 percent lethal dose (LD50), graphical method; conditions: mouse, in vivo, Table III
mice of strain CD 1 = test: as above; type: in vivo; conditions: mice CD 1, intraperitoneal; Table II
Protocol: as §1, §2

[4] = Rattus norvegicus, ip, 1.25 h, read-out: […] % RELATIVE TO THE CONTROLS (total duration of the "sleep"), 10 mg/kg intraperitoneally
[5] = Rattus norvegicus, ip, 1.25 h, read-out: […] % RELATIVE TO THE CONTROLS (total duration of the "sleep"), 30 mg/kg intraperitoneally
[6] = ip, intraperitoneal, read-out: TOXICITY intraperitoneal
[7] = Rattus norvegicus, ip, 1.25 h, 10 mg/kg intraperitoneally
[8] = Rattus norvegicus, ip, 1.25 h, 30 mg/kg intraperitoneally
[9] = iv, read-out: TOXICITY intravenous

SMILES | ED (100% increase in survival time) (mice of the CD 1 strain) | LD50 [1] | TOTAL DURATION of the "sleep" ([2]; 30 mg/kg intraperitoneally) | LD50 [3, 6] | other results
CN1CCc2c3n(c4ccc(Cl)cc24)C(=O)CCC31 (stereo not shown) [Compound 53] | 8 mg/kg | 150 mg/kg | – | – | –
COC(=O)[C@@H]1CC(=O)n2c3c(c4ccccc42)CCN(CCC(C)=O)[C@@H]31 (relative stereo) [Compound 49 m.s.cis] | – | – | 38.51 ± 3.12 minutes. seconds | 600 mg/kg | TOTAL DURATION of the "sleep" ([2]; 10 mg/kg intraperitoneally): 35.22 ± 2.26 minutes. seconds; change in vivo at 10 mg/kg [2, 4]: -35%; change in vivo at 30 mg/kg [2, 5]: -28%
CCN1CCc2c3n(c4ccccc24)C(=O)CCC31 (stereo not shown) [Compound 3] | 9 mg/kg | 58 mg/kg | – | – | –
CN1CCc2c3n(c4ccccc24)C(=O)CCC31 (stereo not shown) [Compound 2 (base), 1,2,3,3a,4,5-Hexahydro-3-methyl-6H-indolo[3,2,1-de][1,5]naphthyridin-6-one] | 6 mg/kg | 85 mg/kg | – | – | –
CN1CCc2c3n(c4ccccc24)C(=O)CCC31 (stereo not shown) [2 (m.s.), 1,2,3,3a,4,5-Hexahydro-3-methyl-6H-indolo[3,2,1-de][1,5]naphthyridin-6-one] | – | – | – | – | ANOXIA DUE TO PRESSURE REDUCTION, mean active dose (MAD), dose which increases the survival time by 100% (mice of the CD 1 strain): 4.5; ACUTE TOXICITY LD50 for intraperitoneal administration (mice of strain CD 1): 52 mg/kg
CCN1CCc2c3n(c4ccccc24)C(C)=CCC31 (stereo not shown) [Compound 26] | 10 mg/kg | 67 mg/kg | – | – | –
COC(=O)[C@@H]1CC(=O)n2c3c(c4ccccc42)CCN(C)[C@@H]31 (relative stereo) [1 (m.s.cis), Methyl 1,2,3,3a,4,5-hexahydro-3-methyl-6-oxo-6H-indolo[3,2,1-de][1,5]naphthyridine-4-carboxylate] | 4 mg/kg | 170 mg/kg | – | – | –
CCCN1CCc2c3n(c4ccccc24)C(C)(O)CCC31 (stereo not shown) [Compound 22] | 8 mg/kg | 105 mg/kg | – | – | –
COc1ccc2c(c1)c1c3n2C(=O)CCC3N(C)CC1 (stereo not shown) [Compound 38] | 8 mg/kg | 65 mg/kg | – | – | –
Cc1ccc2c3c4n(c2c1)C(=O)CCC4N(C)CC3 (stereo not shown) [Compound 69] | – | – | – | 88 mg/kg | TOTAL DURATION of the "sleep" ([2]; 10 mg/kg intraperitoneally): 29.46 ± 1.27 minutes. seconds; change in vivo at 10 mg/kg [2, 7]: -45%
CC(O)CCN1CCc2c3n(c4ccccc24)C(=O)CCC31 (single isomer, unassigned) [35 (base, isomer A)] | 9 mg/kg | 150 mg/kg | – | – | –
CC1=CCC2c3c(c4ccccc4n31)CCN2C (stereo not shown) [Compound 9, 1,2,3,3a-Tetrahydro-3,6-dimethyl-4H-indolo[3,2,1-de][1,5]naphthyridine] | 6.5 mg/kg | 78 mg/kg | – | – | –
COC(=O)[C@@H]1CC(=O)n2c3c(c4cc(F)ccc42)CCN(C)[C@@H]31 (relative stereo) [Compound 60 cis-isomer] | – | – | – | 725 mg/kg | TOTAL DURATION of the "sleep" ([2]; 10 mg/kg intraperitoneally): 34.22 ± 2.47 minutes. seconds; change in vivo at 10 mg/kg [2, 4]: -37%
CC(=O)CN1CCc2c3n(c4ccccc24)C(=O)CCC31 (stereo not shown) [Compound 62] | 10 mg/kg | 190 mg/kg | – | – | –
COC(=O)[C@@H]1CC(=O)n2c3c(c4ccccc42)CCN(C)[C@H]31 (relative stereo) [Compound 1 trans m.s., Methyl 1,2,3,3a,4,5-hexahydro-3-methyl-6-oxo-6H-indolo[3,2,1-de][1,5]naphthyridine-4-carboxylate] | – | – | – | 185 mg/kg | TOTAL DURATION of the "sleep" ([2]; 40 mg/kg intraperitoneally): 32.01 ± 2.59 minutes. seconds; change in vivo at 40 mg/kg ([2]; Rattus norvegicus, ip, 1.25 h, read-out: […] % RELATIVE TO THE CONTROLS (total duration of the "sleep")): -41%; LD50 ([3]; intravenous, read-out: TOXICITY intravenous): 47 mg/kg
CCN1CCc2c3n(c4ccccc24)C(C)(O)CCC31 (stereo not shown) [Compound 21] | 7 mg/kg | 75 mg/kg | – | – | –
CCN1CCc2c3n(c4ccccc24)C(C)CCC31 (stereo not shown) [28 (m.s.)] | 4.5 mg/kg | 40 mg/kg | – | – | –
COC(=O)[C@@H]1CC(=O)n2c3c(c4cc(Cl)ccc42)CCN[C@H]31 (relative stereo) [Compound 58 trans-isomer] | – | – | 31.12 ± 2.18 minutes. seconds | 170 mg/kg | change in vivo at 30 mg/kg [2, 5]: -42%
COC(=O)C1CC(=O)n2c3c(c4cc(Cl)ccc42)CCNC31 (stereo not shown) [Compound 51] | – | – | 37.51 ± 2.12 minutes. seconds | 760 mg/kg | change in vivo at 30 mg/kg [2, 5]: -30%
Cc1ccc2c(c1)c1c3n2C(=O)CCC3NCC1 (stereo not shown) [Compound 11] | – | – | 34.08 ± 1.21 minutes. seconds | 155 mg/kg | change in vivo at 30 mg/kg [2, 8]: -37%; LD50 [3, 9]: 105 mg/kg
COC(=O)[C@@H]1CC(=O)n2c3c(c4cc(Cl)ccc42)CCN[C@@H]31 (relative stereo) [Compound 58 cis-isomer] | – | – | 36.08 ± 2.47 minutes. seconds | 190 mg/kg | change in vivo at 30 mg/kg [2, 5]: -33%
CC1CCC2c3c(c4ccccc4n31)CCN2C (stereo not shown) [Compound 10] | 6.5 mg/kg | 50 mg/kg | – | – | –
CCOC(=O)[C@@H]1CC(=O)n2c3c(c4ccccc42)CCN(C)[C@@H]31 (relative stereo) [30 (m.s.)] | 9 mg/kg | 110 mg/kg | – | – | –
O=C1CCC2NCCc3c2n1c1cccc(Cl)c31 (stereo not shown) [Compound 65] | – | – | – | 54 mg/kg | TOTAL DURATION of the "sleep" ([2]; 10 mg/kg intraperitoneally): 34.51 ± 1.42 minutes. seconds; change in vivo at 10 mg/kg [2, 7]: -36%
COC(=O)CCN1CCc2c3n(c4ccccc24)C(=O)CCC31 (stereo not shown) [Compound 19] | – | – | 38.59 ± 1.20 minutes. seconds | 680 mg/kg | change in vivo at 30 mg/kg [2, 8]: -28%; LD50 [3, 9]: 103 mg/kg
CC(=O)CCN1CCc2c3n(c4ccc(Cl)cc24)C(=O)CCC31 (stereo not shown) [Compound 56] | – | – | 30.39 ± 3.01 minutes. seconds | 575 mg/kg | TOTAL DURATION of the "sleep" ([2]; 10 mg/kg intraperitoneally): 43.07 ± 3.26 minutes. seconds; change in vivo at 10 mg/kg [2, 7]: -20%; change in vivo at 30 mg/kg [2, 8]: -43%
CC(O)CN1CCc2c3n(c4ccccc24)C(=O)CCC31 (single isomer, unassigned) [Compound 63 isomer A] | – | – | 34.52 ± 2.14 minutes. seconds | 125 mg/kg | change in vivo at 30 mg/kg [2, 8]: -36%; LD50 [3, 9]: 75 mg/kg
CC(=O)CCN1CCc2c3n(c4ccccc24)C(=O)CCC31 (stereo not shown) [Compound 33] | 8 mg/kg | 170 mg/kg | – | – | –
O=C1CCC2NCCc3c2n1c1ccc(F)cc31 (stereo not shown) [Compound 54] | – | – | 28.28 ± 4.28 minutes. seconds | 100 mg/kg | TOTAL DURATION of the "sleep" ([2]; 10 mg/kg intraperitoneally): 40.01 ± 5.00 minutes. seconds; change in vivo at 10 mg/kg [2, 7]: -26%; change in vivo at 30 mg/kg [2, 8]: -47%
O=C1CCC2NCCc3c2n1c1ccc(Cl)cc31 (stereo not shown) [Compound 52] | 9.5 mg/kg | 165 mg/kg | 32.35 ± 5.02 minutes. seconds | – | TOTAL DURATION of the "sleep" ([2]; 10 mg/kg intraperitoneally): 37.34 ± 3.35 minutes. seconds; change in vivo at 10 mg/kg [2, 7]: -31%; change in vivo at 30 mg/kg [2, 8]: -40%; LD50 [3, 9]: 110 mg/kg
